According to patent publication US10695341B2, “Compositions and methods for treating endometriosis” (UNIVERSITY OF SOUTH FLORIDA, priority 2014, dated 2020):

Legend:
LC3B-II = assay: Western blot for LC3B, T-HESC cells, HCQ; type: cell-based, human; details: 25 μM HCQ, 18 hours
ATG5 and ATG3 mRNA = assay: Real-time PCR of autophagic mediators in lesions; type: in vivo, C57BL/6 mice; details: lesions of HCQ-treated vs PBS-treated mice
Experimental: Total RNA was isolated using the RNeasy kit following the manufacturer's instructions (QIAGEN, Valencia, Calif.). RNA concentration and purity was determined using a 1000 NanoDrop (Thermo Scientific, Pittsburgh, Pa.). Lesion mass varied by samples, and this was reflected in the RNA amounts obtained (range of mass: 0.9 mg to 25 mg). Three RNA samples from uterine horns, having a 260/280 ratio higher than 1.8 and a 260/230 ratio higher than 1.7, were selected from recipient, donor, HCQ-treated, and PBS-treated animals (12 samples in total) for RT2-PCR analyses. Synthesis of cDNA was performed using 0.5 μg of total RNA, after DNA elimination step using the RT2 First Strand kit per manufacturer instructions (QIAGEN, Valencia, Calif.). After DNA elimination, the reaction mix was incubated at 42° C. for 15 min, followed by 95° C. for 5 min using a DNA Engine® Peltier Thermal cycler (Bio-Rad, Hercules, Calif.). A total of 102 μl of the cDNA reaction mix was added to the master mix containing 1,248 μl of RNAse-free water and 1,350 μl of 2× RT2 SYBR green master mix. Twenty-five μl of the master mix were carefully added to each well of the RT2 profiler PCR autophagy array. Quantification was performed using the Applied Biosystems cycler (Life Technologies, Grand Island, N.Y.). […] The PCR cycling program finalized with a melt curve analysis and data was analyzed using the QIAGEN web-based software.

[1] = test system: G-CSF, eotaxin, and IP-10; assay: Peritoneal fluid cytokine/chemokine magnetic bead panel; type: in vivo, mouse
Experimental: After animals were euthanized, 1 ml of sterile PBS was injected into the peritoneal cavity, the abdominal area was gently massaged, and the fluid collected. The collected fluid was centrifuged at 1,390 rpm for 5 min at 4° C. and the resulting supernatant was then stored at −80° C. Levels of chemokines and cytokines were analyzed using a MCYTOMAG-70K-PX32 (Millipore, Billerica, Mass.) following manufacturer's instructions. Briefly, 200 μl of wash buffer was added to each well and incubated for 10 min at room temperature in a plate shaker. After incubation, the wash buffer was decanted and the plate was inverted and tapped on absorbent towel several times. Then, 25 μl of assay buffer was added to each well followed by 25 μl of concentration standards, assay controls, or samples. The premixed bottle was vortexed and 25 μl of the beads were added to each well. The plate was incubated overnight at 4° C., protected from light. Then the plate was incubated for 1 min on the hand-held magnet and the well content was gently decanted and tapped on absorbent pads. Each well was washed twice using 200 μl of wash buffer, followed by the incubation on the hand-held magnet. Antibody detection solution was allowed to warm to room temperature, and then 25 μl was added to each well and incubated for 1 h at room temperature on a plate shaker, protected from light. Next, 25 μl of Streptavidin-Phycoerythrin was added to each well containing the detection antibodies and incubated for 30 min at room temperature protected from light on a plate shaker. After the incubation, the plate was washed twice as previously described and 150 μl of Sheath Fluid was added to each well. The plate was analyzed using MAGPIX™ instrument and xPONENT software solutions, version 4.2.

endometriotic lesions = assay: Immunohistochemistry of lesions (CK8, ERα, PR); type: in vivo, mouse; details: PR immunohistochemical staining, lesions from HCQ-treated mice
Experimental: Collected samples were immediately preserved in 10% neutral buffered formalin at the animal facility. Samples were embedded in paraffin, sectioned, and transferred to slides for hematoxylin/eosin and immunohistochemical staining. A pathologist reviewed each case and delimited the region of interest, containing epithelial and stromal cells, for each specimen. A mouse tissue microarray was prepared at the Tissue Core Facility at the Moffitt Cancer Center. The mouse tissue microarray contained a total of 113 core samples, which included 10 uterine horns and 10 ovaries from both PBS and HCQ treated mice. As control specimens for the utilized antibodies, the TMA included mouse mammary tissue, liver, small intestine, and lymph nodes from a PBS treated mouse. Lesions were analyzed from independent blocks. Slides were stained using a Leica Bond RX automated system (Leica Biosytems, Buffalo Grove, Ill.) following manufacturers instructions with proprietary reagents. Slides were deparaffinized on an automated system with Dewax Solution (Leica Biosystems). […]

[2] = HCQ-treated vs PBS-treated mice

CCN(CCO)CCCC(C)Nc1ccnc2cc(Cl)ccc12 (stereo not shown) [HCQ, hydroxychloroquine]
LC3B-II protein in T-HESC cells (LC3B-II): increase | ATG3 mRNA in lesions (ATG5 and ATG3 mRNA; p=0.0248): significant increase | ATG5 mRNA in lesions (ATG5 and ATG3 mRNA; p=0.0499): significant increase | IP-10 in peritoneal fluid ([1]; HCQ-treated (n=5) vs PBS-treated mice, p=0.0079): significantly increased | G-CSF in peritoneal fluid [1, 2]: remained unchanged | eotaxin in peritoneal fluid [1, 2]: remained unchanged | stained lesions with absence of glandular components (endometriotic lesions): four out of the seven
